Laboratory results: paper PMC7770833, “Design, Synthesis, and Biological Evaluation of a Series of Oxazolone Carboxamides as a Novel Class of Acid Ceramidase Inhibitors” (Journal of Medicinal Chemistry, 2020)

Legend:
[1] = In vitro microsomal stability study, human liver microsomes; type: in vitro ADME
Method: Freshly prepared 10 mM CH3CN stock solution of the test compound was pre-incubated at 37 °C for 15 min with mouse/human liver microsomes added 0.1 M Tris-HCl buffer (pH 7.4). The final concentration was 4.6 μM. After pre-incubation, the cofactors (NADPH, G6P, G6PDH, and MgCl2 pre-dissolved in 0.1 M Tris-HCl) were added to the incubation mixture and the incubation was continued at 37 °C for 1 h. At each time point (0, 5, 15, 30, and 60 min), 30 μL of the incubation mixture was diluted with 200 μL of cold CH3CN spiked with 200 nM of the internal standard, followed by centrifugation at 3300g for 15 min. The supernatant was further diluted with H2O (1:1) for analysis. The concentration of the test compound was quantified by LC/MS–MS on a Waters Acquity UPLC/MS TQD system consisting of TQD MS equipped with an ESI interface. The analyses were run on an Acquity UPLC BEH C18 (50 × 2.1 mm ID, particle size 1.7 μm) with a VanGuard BEH C18 pre-column (5 × 2.1 mm ID, particle size 1.7 μm) at 40 °C. For each compound, the appropriate mobile phase was chosen. ESI was applied in positive mode. The percentage of the test compound remaining at each time point relative to t = 0 was calculated. The t1/2 were determined by a one-phase decay equation using a nonlinear regression of the compound concentration versus time. […]

[2] = target: T1, human N-acylethanolamine acid amidase (hNAAA) (Homo sapiens, UniProt Q02083); assay: Fluorogenic hNAAA assay; type: biochemical; settings: at up to 125 μM
T1 construct: expressed in transfected cells; lysosome-enriched lysate
T1 sequence (Q02083 29-359): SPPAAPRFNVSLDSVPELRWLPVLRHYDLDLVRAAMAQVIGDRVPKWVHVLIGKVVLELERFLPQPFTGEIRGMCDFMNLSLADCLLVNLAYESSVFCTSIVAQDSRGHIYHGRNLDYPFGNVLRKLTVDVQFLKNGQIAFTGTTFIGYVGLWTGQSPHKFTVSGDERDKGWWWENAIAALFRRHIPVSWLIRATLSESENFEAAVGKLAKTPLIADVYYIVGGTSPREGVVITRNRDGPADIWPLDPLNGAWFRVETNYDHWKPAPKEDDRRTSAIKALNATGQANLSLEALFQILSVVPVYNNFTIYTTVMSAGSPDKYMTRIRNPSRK
Method: HEK-293 cells stably transfected with the hNAAA coding sequence cloned from a human spleen cDNA library (catalog no. 639124, Clontech, Mountain View, CA, USA) were used as the enzyme source. Cells were grown in DMEM containing 10% FBS, 1% glutamine, 1 mM sodium pyruvate, and 500 μg/mL G418. Cells were harvested and pellets were stored at −80 °C until lysosomal-enriched lysate preparation. Cells were suspended in 20 mM Tris HCl (pH 7.4) with 0.32 M sucrose, sonicated, and centrifuged at 800 × g for 30 min at 4 °C. Supernatants were then ultracentrifuged at 12 000 × g for 30 min at 4 °C. Pellets were re-suspended in PBS buffer (pH 7.4) and subjected to three freeze–thaw cycles at −80 °C. The suspension was finally ultracentrifuged at 105 000 × g for 1 h at 4 °C, supernatants were collected, protein concentration was measured, and samples aliquoted and stored at −80 °C until use.
The assay was run in 96-well microplates (Black OptiPlate-96 F; PerkinElmer, Massachusetts, USA) in a total reaction volume of 200 μL. hNAAA protein preparation (4.0 μg) was pre-incubated for 30 min with various concentrations of test compounds or vehicle control (DMSO 5%) in 100 mM citrate/phosphate buffer (pH 4.5) containing 3.0 mM dithiothreitol (DTT), 0.1% NP40 0.1%, 0.05% bovine serum albumin, and 150 mM NaCl. […]

h-liver microsomes % compound remaining at 1 h ([1]; 1 h): 80%
half-life at 4.6 μM ([1]; pH 7.4, read-out: h-liver microsomal stability t1/2): > 1 h
effect against hNAAA [2]: no effect
SMILES: CCCCCNC(=O)n1cc(-c2ccc(F)cc2C2CCN(C)CC2)oc1=O [Compound 32b, 5-[4-Fluoro-2-(1-methyl-4-piperidyl)phenyl]-2-oxo-N-pentyl-oxazole-3-carboxamide]
